Results from EP3305290B1, “[…] […] FOR USE IN THE TREATMENT OF VIRAL INFECTIONS” (priority 2016, dated 2018).
Entries after “also recorded” stand apart in the source; their conditions may differ. Read-outs that look alike come from different tables or passages of the source.

Columns and labels:
EBOV [1] = type: cell-based, Zaire Ebola virus (EBOV) strain Mayinga
EBOV [2] = type: cell-based, Zaire Ebola virus (EBOV) strain Mayinga; remark: listed apart in the source
[3] = test system: EBOV proteins VP40, NP and GP; type: cell-based, Zaire Ebola virus (EBOV) strain Mayinga
EBOV NP protein = type: cell-based, Zaire Ebola virus (EBOV) strain Mayinga
[4] = test system: proto-oncogenic kinase PIM1; assay: Westernblot of PIM1 in primary macrophages; type: cell-based, human
5'-UTRs of Ebola mRNAs = assay: cells; type: cell-based, EBOV; conditions: for inhibition at 0.01 µM: Zaire ebolavirus
[5] = test system: 5'-UTRs of all seven EBOV mRNAs; type: cell-based
5'-UTR from HCoV-229E = type: cell-based
5'-UTR from MERS-CoV = type: cell-based
MERS-CoV [6] = assay: microbe, parasite or virus in culture; type: cell-based, MERS-CoV (EMC/2012)
HCoV-229E [7] = assay: microbe, parasite or virus in culture; type: cell-based, Human Coronavirus 229E (HCoV-229E)
rhinovirus A1 = assay: organism not typed; type: cell-based, human Rhinovirus 1A (HRV1A); conditions: for EC50: MRC5, 24 h
poliovirus [8] = assay: microbe, parasite or virus in culture; type: cell-based, Poliovirus Typ 1 (strain Mahoney; PV)
Rhinovirus 1A = assay: microbe, parasite or virus in culture; type: cell-based, human Rhinovirus 1A (HRV1A); conditions: for EC50: Enterovirus, HeLa
HCoV-229E [9] = assay: microbe, parasite or virus in culture; type: cell-based, Human Coronavirus 229E (HCoV-229E); conditions: Human coronavirus 229E
poliovirus [10] = assay: microbe, parasite or virus in culture; type: cell-based, Poliovirus Typ 1 (strain Mahoney; PV); conditions: Enterovirus C
MERS-CoV [11] = assay: microbe, parasite or virus in culture; type: cell-based, MERS-CoV (EMC/2012); remark: listed apart in the source
Coronaviruses = assay: organism not typed; type: cell-based; conditions: MRC5, read-out: EC50-values
viral dsRNA and nsp8 = assay: Immunofluorescence of replication/transcription complexes in HCoV-229E infected MRC-5 cells; type: cell-based; conditions: MOI 3, 12 h p.i.
[12] = test system: HCoV-229E proteins N and nsp8; assay: Westernblot analysis, Method 2, HCoV-229E proteins N and nsp8; type: cell-based
Huh-7 cells [13] = assay: Cell morphology of Huh-7 cells by light microscopy; type: cell-based, human; conditions: 10 nM, three days
in vitro = conditions: human
[14] = Cell toxicity (MTT) in hAEC; conditions: human
[15] = Cell toxicity (MTT) in PBMCs; conditions: human
Huh-7 cells [16] = assay: WST-1 proliferation assay of Huh-7 cells
primary macrophages = assay: WST-1 viability assay of primary macrophages

COC(=O)[C@H]1[C@@H](O)[C@@]2(O)c3c(OC)cc(O[C@@H]4O[C@@H]([C@H](O)CO)CO[C@H]4OC)cc3O[C@@]2(c2ccc(OC)cc2)[C@@H]1c1ccccc1 [Silvestrol]
antiviral effect (EBOV titer) (EBOV [1]): comparable antiviral effect | inhibition of EBOV infection (viral titers) (EBOV [1]): substantially inhibits EBOV infection; also recorded: inhibits viral propagation efficiently; also recorded: strongly inhibits EBOV replication | reduction of viral titers (EBOV [2]): up to two orders of magnitude | EBOV protein VP40 levels [3]: strong reduction of VP40 levels; also recorded: inhibits the expression | EBOV proteins NP and GP levels [3]: Downregulation | cellular protein tubulin level [3]: not affected | expression level of the EBOV NP protein (EBOV NP protein): potent downregulation; also recorded: strongly decreased levels | PIM1 levels ([4]; primary macrophages, 10 nM): strongly decreased levels | duration of inhibitory effect on PIM1 levels ([4]; single dose 10 nM, macrophages): at least 5 days | cellular β-Actin levels ([4]; single dose 10 nM, macrophages, up to 5 days): without affecting cellular β-Actin levels | effect on IRES-driven renilla luciferase activity (5'-UTRs of Ebola mRNAs): no obvious effect | inhibition at 0.01 µM (5'-UTRs of Ebola mRNAs; HepG2, read-out: inhibitory effect on firefly luciferase activity): 80% | inhibition at 0.01 µM (5'-UTRs of Ebola mRNAs; HepG2, read-out: inhibitory effect on luciferase levels): 30% | inhibition of firefly luciferase activity [5]: 23-33% | reduction of firefly luciferase activity [5]: no significant reduction | decrease of luciferase activity (5'-UTR from HCoV-229E): ~40% | decrease of luciferase activity (5'-UTR from MERS-CoV): ~40% | selectivity index (CC50/EC50) (MERS-CoV [6]): 1538 | EC50 (MERS-CoV [6]; Middle East respiratory syndrome-related coronavirus, MRC5, 24 h): 1.3 nM | EC50 fold lower in MRC-5 cells compared to infected Huh-7 cells (HCoV-229E [7]): about 10 fold | selectivity index (CC50/EC50) (HCoV-229E [7]): 566 | EC50 (HCoV-229E [7]; Human coronavirus 229E, MRC5, 24 h): 3 nM | fold less sensitive compared to the analyzed coronaviruses (rhinovirus A1): about 100 fold | EC50 (rhinovirus A1): 100 nM | EC50 (rhinovirus A1; Rhinovirus A): 100 nM | fold less sensitive / less efficient compared to MERS-CoV and HCoV-229E (poliovirus [8]): about 10 fold | EC50 (poliovirus [8]; Enterovirus C, MRC5, 24 h): 20 nM | EC50 fold higher compared to HCoV-229E in Huh-7 (Rhinovirus 1A): about 10 fold | EC50 (Rhinovirus 1A): 400 nM | EC50 (Rhinovirus 1A; 24 h, read-out: effective dose (EC50)): 400 nM | EC50 (HCoV-229E [9]; Huh-7): 40 nM | EC50 (HCoV-229E [9]; Huh-7, 24 h, read-out: effective dose (EC50)): 40 nM | EC50 (poliovirus [10]; Vero C1008): ~100 nM | EC50 (poliovirus [10]; Vero C1008, 24 h, read-out: effective dose (EC50)): 100 nM | selectivity index (MERS-CoV [11]): 166 | EC50 (MERS-CoV [11]; Middle East respiratory syndrome-related coronavirus, Epithelial cell, 48 h): 3 nM | EC50 (Coronaviruses): 1 to 3 nM | levels of double-stranded viral RNA and nsp8 (RTC markers) (viral dsRNA and nsp8; 10 nM): drop down | levels of double-stranded viral RNA and nsp8 (RTC markers) (viral dsRNA and nsp8; 100 nM): nearly no viral dsRNA or nsp8 can be detected | level of N-protein ([12]; HCoV-229E infected primary MRC-5 cells, 10 nM, 12 h and 48 h p.i.): disappears | HCoV-229E proteins N and nsp8 ([12]; Huh-7 infected cells, 10 nM): detectable | N-protein ([12]; Huh-7 infected cells, 100 nM): only very low amounts | nsp8 ([12]; Huh-7 infected cells, 100 nM): completely absent | cell morphology (Huh-7 cells [13]): without changing cell morphology | CC50 (in vitro; CC50): 1700 nM | CC50 (in vitro; CC50 / cell toxicity): > 1000 nM | CC50 at 48 h [14]: 500 nM | CC50 [15]: 400 nM | effect on proliferation of Huh-7 cells (Huh-7 cells [16]; higher concentrations up to 100 nM, compared to DMSO control): weakly affected; also recorded: weak effects on proliferation | effect on proliferation of Huh-7 cells (Huh-7 cells [16]; up to 10 nM Silvestrol, WST-1, 48 h): no obvious effects on proliferation; also recorded: No effect of Silvestrol on proliferation | IC50 (primary macrophages; Homo sapiens, Primary macrophage, 72 h, read-out: IC50 (WST-1 viability assay), primary macrophages, 0.1 nM - 10 µM, 72 h): ~96 nM | concentration with essentially no sign of toxicity (primary macrophages; primary macrophages, WST-1): at least 50 nM
